Assay results as given in US7407763B2, “Systems and methods for detecting and regulating metastasis” (The Regents of the University of Michigan, priority 2004, dated 2008).

What was measured:
[1] = test system: RKIP mRNA expression; test: RKIP mRNA expression in RWPE cells by real-time RT-PCR; assay type: cell-based, human
[2] = test system: putative RKIP ARE; conditions: RWPE nuclear extracts, 5 nM DHT, as early as 30 min
Experimental: The reaction was allowed to proceed for 30 min at room temperature.

[3] = test system: human RKIP promoter; conditions: RWPE cells, DHT 5 nM, 10 nM, 24 h, compared to basal activity
[4] = test system: RKIP mRNA levels; test: RKIP mRNA levels in LNCaP cells by real time PCR; assay type: cell-based, human; conditions: IL-6 50 ng/ml, 6 or 24 hours (FIG. 7)
Experimental: LNCaP cells were plated in culture dishes and treated with IL-6 (50 ng/ml) or vehicle for 6 or 24 hours. Total RNA was collected and subjected to real time PCR for RKIP mRNA levels. RKIP mRNA levels were normalized to β-galactosidase mRNA levels.

[5] = test system: C4-2B cells; test: In vitro invasion assay with protein kinase inhibitors; assay type: cell-based, human; conditions: in vitro invasion through matrix, C4-2B cells (FIG. 4)
Experimental: The invasiveness of control and sense or antisense-transfected cell clones was evaluated in 24-well transwell chambers (Costar, Cambridge, Mass.) as directed by the manufacturer. Briefly, the upper and lower culture compartments were separated by polycarbonate filters with 8-μm pore size. Some wells were coated with 100 μg/cm^2 collagen matrix (MATRIGEL, Collaborative Biomedical Products, Bedford, Mass.) that was reconstituted by adding 0.5 ml of serum-free T medium for 2 hours. […] Cell penetration through the membrane was quantified by staining the porous membrane with a Diff-Quik stain kit. The numbers of cells that penetrated through the membrane were counted in five microscopic fields (×200) per filter. Invasive ability was then determined as the proportion of cells that invaded through the matrix-coated membrane relative to the number of cells that migrated through the uncoated membrane (baseline migration). […]
Furthermore, because RKIP inhibits tumor invasiveness, it was investigated whether RKIP exerts its metastasis suppressor gene function through regulation of MEK activation. […] Accordingly, the effect of a variety of kinase inhibitors was evaluated, including a MEK inhibitor (PD098059) on in vitro invasion. […]

For `C[C@]12CCC(=O)C[C@@H]1CC[C@@H]1[C@@H]2CC[C@]2(C)[C@@H](O)CC[C@@H]12` [DHT, dihydrotestosterone], the “RKIP expression in cells treated with CHX” value [1] was “increase in RKIP expression”, the “increase in RKIP mRNA at 1 nM” value [1] was “significant (P<0.01) increase” and the “induction of RKIP expression at 0.1 nM” value [1] was “almost no induction”. The “maximum induction of RKIP mRNA expression” value [1] was 1.5 fold, the “induction of RKIP expression at saturating amounts (>=5 nM)” value ([1]; RWPE cells, 24 h, >=5 nM DHT) was “significant (P<0.01) induction” and the “RKIP mRNA expression versus DHT concentration” value ([1]; RWPE cells, 24 h, various concentrations of DHT) was “dose-dependent increase”. For the same compound, the “DNA binding activity to RKIP ARE probe” value [2] was “rapid increase in DNA binding activity” and the “increase in luciferase activity of RKIP promoter plasmid” value [3] was “approximately 3 fold”.

With IL-6: the cytokine interleukin-6 the “RKIP expression in LNCaP prostate cancer cells” value [4] was “reduces RKIP expression”.

For `C[C@@H]1C[C@@H]([C@H](O)CC2CC(=O)NC(=O)C2)C(=O)[C@@H](C)C1` [CHX, cycloheximide], the “expression of RKIP, treatment alone” value ([1]; RWPE cells, 24 h, CHX alone (FIG. 12C)) was “did not change the expression of RKIP”.

For `CC(O)(CS(=O)(=O)c1ccc(F)cc1)C(=O)Nc1ccc(C#N)c(C(F)(F)F)c1` (stereo not drawn) [Casodex], the “effect on DHT induction of RKIP mRNA expression” value ([1]; RWPE cells, 24 h, casodex in the presence of DHT (FIG. 12B)) was “substantially reduced”.

`COc1cccc(-c2cc(=O)c3ccccc3o2)c1N` [PD098059] was tested, and the “decrease of invasive ability of C4-2B cells” value [5] was 41%.
